This note sets out measurements from patent US20040197335A1, “Non-myeloablative tolerogenic treatment with tyrphostins” (priority 2003, published 2004).

Assay [1] deals with Human PBMC incubated with MHC-mismatched PBMC. The assay can be described thus: One-way mixed lymphocyte reaction (primary MLR), [3H]TdR uptake. The assay is classed as cell-based. The note with it: for pIC50: Table 5, some values marked (mean), read-out: IC 50% (inhibition of Primary MLR); for % response (alloreactive relative response, cpm with/without tyrphostin x100): FIG. 2, response without tyrphostin = 100%; for cpm: no tyrphostin 10,734 cpm; for cpm ± SD: no tyrphostin 30,520 cpm. As for the experimental part: Cell sources: Human peripheral blood mononuclear cells (PBMC) were obtained from healthy human donors after separation on Ficoll-Paque density gradient essentially as described in Boyum, A. Scand. J Lab. Invest. […] Reagents:
One-way mixed lymphocyte reaction (MLR assay): Responding cells derived from donor A (5×10^4) were cultured in round-bottom microwell plates with an equal number (5×10^4) of irradiated (6000 cGy) donor B PBMC with and without tyrphostins. […] During the last 18 hours of incubation, cultures were pulsed with 2 μCi of [^3H] TdR.
(§1) Harvesting and radioactivity determination: Harvesting was carried out by a multiple-sample cell harvester and radioactivity, expressed in counts per minutes (cpm), was determined in a liquid scintillation β-counter.
Human PBMC were incubated either with autologous or with MHC-mismatched PBMC in a one-way MLR assay, with and without various concentrations of tyrphostins, as is described hereinabove.
In this case, the alloreactive response without the tyrphostins was considered as 100% response. Percentage of response was calculated according to the following formula: b/a×100; where a=cpm in cultures without tyrphostin, b=cpm in cultures with tyrphostin.

The subject of assay [2] is Human PBMC stimulated with phytohemagglutinin (PHA). The assay can be described thus: Primary mitogenic response assay (PHA), [3H]TdR uptake. The assay is classed as cell-based. The note with it: Table 6, tyrphostin 20 μM; for inhibition at 20 µM: Homo sapiens, PBMC, 96 h; for cpm ± SD: PHA without tyrphostin 14,959±644, medium 155±37. As for the experimental part:
Mitogens: Phytohemagglutinin (PHA) and concanavalin A (Con-A) were dissolved in saline and diluted to their final concentration in culture medium. Anti-CD3 (OK3 stock solution 1 μg/ml) was diluted to 0.2 μg/ml final concentration in culture medium.
Responding PBMC cells (10^5) derived from donor A were cultured in flat-bottom microwell plates with and without tyrphostins, and with phytohemagglutinin (PHA) 1 μg/ml, or concanavalin A 18 μg/ml. […] During the last 18 hours of incubation, cultures were pulsed with 1 μCi of [^3H] TdR.
as §1

[3] abbreviates: Homo sapiens, PBMC, 144 h, Table 2, primary MLR, tyrphostin 50 μM.
Where [4] appears, read: Table 2, primary MLR, tyrphostin 50 μM.
Setting [5] is: Homo sapiens, PBMC, 144 h, Table 3, primary MLR, tyrphostin 25 μM.
[6] abbreviates: Homo sapiens, PBMC, 144 h, Table 3, primary MLR, tyrphostin 50 μM.
The mark [7] stands for this setting: Table 3, primary MLR, tyrphostin 25 μM.
Setting [8] is: Table 3, primary MLR, tyrphostin 50 μM.

pIC50: −log10 of the molar value. Read-outs that look alike come from different tables or passages of the source.

Broadly, the % Inhibition is the relative decrease from the control value, in per cent. The low end stands for a response near the control, the high end for a response far below the control. The inhibition is the change of the read-out against control, counted positive when it falls. Read a low inhibition as a response near the control.

Consider “3-(3,5-dimethyl-H-pyrrol-2-yl-methylene)-2-oxo-2,3-dihydro-1H-indole-5-sulfonic acid dimethylamide [Tyr 16]”, for which the “% Inhibition” value in assay [1] (Table 4, primary MLR, tyrphostin 1 μM) was found to be 62%. The pIC50 in assay [1] is 5.40.
As to `N#CC(=Cc1ccc(O)c(O)c1)C(=O)NCCCCc1ccccc1` [Tyr 5, 2-cyano-3-(3,4-dihydroxyphenyl)-N-(4-phenylbutyl)-acrylamide], the “% response (alloreactive relative response, cpm with/without tyrphostin x100)” value in assay [1] (primary MLR, tyrphostin 10 μM) was determined as 32%; in assay [1] (primary MLR, tyrphostin 50 μM) it was 13%. The inhibition at 10 µM in assay [1] (Homo sapiens, PBMC, 144 h, Table 2, primary MLR, tyrphostin 10 μM) is 40%. The compound further registered an inhibition at 50 µM in assay [1] (setting [3]) of 70%. In addition, the pIC50 in assay [1] (Homo sapiens, PBMC) is 4.47. In addition, the cpm in assay [1] (Table 2, primary MLR, tyrphostin 10 μM) is 6,413 cpm; in assay [1] (setting [4]), 3,156 cpm.
In turn, `N#CC(C#N)=Cc1ccc([N+](=O)[O-])c(O)c1` [Tyr 7, 2-(3-hydroxy-4-nitro-benzylidene)malononitrile] came in with an inhibition at 50 µM in assay [1] (setting [3]) of 50%. Further, in assay [1] (Homo sapiens, PBMC, 144 h, Table 2, primary MLR, tyrphostin 100 μM), testing at 100 µM gave an inhibition of 95%. For the same compound, in assay [1] (Homo sapiens, PBMC), the pIC50 was 4.44. Moreover, the cpm is recorded as 5,348 cpm in assay [1] (setting [4]) and 512 cpm in assay [1] (Table 2, primary MLR, tyrphostin 100 μM).
In assay [1] (setting [5]), `COc1cc2ncnc(Nc3ccc(C(N)=O)cc3)c2cc1OC` [Tyr 8, 4-(6,7-dimethoxyquinazoline-4-yl-amino)-benzamide] yielded an inhibition at 25 µM of 49%. This compound had an inhibition at 50 µM in assay [1] (setting [6]) of 63%. The pIC50 in assay [1] (Homo sapiens, PBMC) was 4.37. For the same compound, the entries for the “cpm ± SD” value in assay [1] (setting [7]) and in assay [1] (setting [8]) were 12,452 cpm and 11,293 cpm, respectively.
Turning to `COc1cc2ncnc(Nc3ccc(O)cc3)c2cc1OC` [Tyr 9, 4-(6,7-dimethoxyquinazoline-4-yl-amino)-phenol], the inhibition at 25 µM in assay [1] (setting [5]) was determined as 95%. Further, the inhibition at 50 µM in assay [1] (setting [6]) turned out to be 99%. For the same compound, in assay [1] (Homo sapiens, PBMC), the pIC50 is 4.59. Also, the “cpm ± SD” value in assay [1] (setting [7]) is reported as 1,367 cpm; in assay [1] (setting [8]) it was 371 cpm; in assay [2], 4,582 ± 617 cpm. This compound also had an inhibition at 20 µM in assay [2] (mitogenic response) of 70%.
As to `CC(C)(C)n1nc(-c2cccs2)c2c(N)ncnc21` [Tyr 15, 4-amino-1-t-butyl-3-(2-thiophene)pyrazolo[3,4-d]pyrimidine], the pIC50 in assay [1] was 5.15.
`COc1ccc(-c2nn(C(C)(C)C)c3ncnc(N)c23)cc1OC` [Tyr 19, 4-amino-1-t-butyl-3-(3,4-dimethoxyphenyl)-pyrazolo[3,4-d]pyrimidine] registered an inhibition at 10 µM in assay [1] (Homo sapiens, PBMC, 144 h, Table 4, primary MLR, tyrphostin 10 μM) of 63%. Further, the inhibition at 20 µM in assay [1] (Homo sapiens, PBMC, 144 h, Table 4, primary MLR, tyrphostin 20 μM) amounted to 80%; in assay [2] (mitogenic response), 96%. Besides, the pIC50 in assay [1] (Homo sapiens, PBMC) is 5.52. The “cpm ± SD” value in assay [2] is listed as 553 ± 59 cpm.
Compound `CC(C)(C)c1cc(C=C(C#N)C(N)=S)cc(C(C)(C)C)c1O` [Tyr 23, 2-cyano-3-(3,5-di-t-butyl-4-hydroxyphenyl)-thioacrylamide] yielded an inhibition at 20 µM in assay [2] (mitogenic response) of 68%. In addition, the “cpm ± SD” value in assay [2] is on record as 4,831 ± 1026 cpm.
Compound `N#CC(=Cc1c[nH]c2ccccc12)c1[nH]nc(N)c1C#N` [Tyr 24, 3-amino-5-[1-cyano-2-(1H-indol-3-yl)vinyl]-1H-pyrazole-4-carbonitrile] yielded an inhibition at 20 µM in assay [2] (mitogenic response) of 96%. Besides, the “cpm ± SD” value in assay [2] is 533 ± 45 cpm.
The corresponding values for `N#CC(=Cc1ccc(O)c(O)c1)C(=S)NCc1ccccc1` [Tyr 26, N-benzyl-2-cyano-3-(3,4-dihydroxyphenyl)-thioacrylamide] are 70% and 4,295 ± 221 cpm.
`N#CC(=Cc1cc(O)c(O)c(I)c1)C(=O)NCCCc1ccccc1` [Tyr 32, 2-cyano-3-(3,4-dihydroxy-5-iodophenyl)-N-(4-phenylpropyl)-acrylamide]: the “% Inhibition” value in assay [2] (mitogenic response) is listed as 58%. Besides, the “cpm ± SD” value in assay [2] is on record as 6,303 ± 1205 cpm.
